The values below come from patent US9180163B2, “Parstatin peptides” (priority 2009, dated 2015).

The test system of test [1] is VEGF-induced retinal leukostasis in C57BL/6J mice. The test can be described thus: VEGF-induced retinal leukostasis model. Particulars: for reduction of firmly adhering leukocytes vs VEGF-treated controls: 5 μg co-injected with VEGF; for firmly adhering leukocytes: 5 μg co-injected with VEGF (10 μM), 6 h. Type of test: in vivo, mouse. How it is done: Inflammatory leukocyte accumulation is a common feature of major ocular diseases. […] VEGF, which is a potent chemoattractant for leukocytes, is increased in ischemic retina and is necessary for retinal neovascularization to occur. Parstatin (1-41), hydrophobic parstatin (1-26) fragment and hydrophilic parstatin (24-41) fragment were used in an in vivo mice model of VEGF-induced retinal leukostasis.
C57BL/6J (4-5 week-old) mice were anesthetized with ketamine hydrochloride (100 mg/kg body weight) and xylazine (4 mg/Kg body weight) and the pupils were dilated with 1% tropicamide. Intravitreal injections of 1 μl solutions of 10 μM VEGF, which is the optimal concentration for promoting leukostasis, or parstatin (1-41) or parstatin (24-41) in phosphate buffered saline (PBS) or PBS alone or the combinations were administered. Also, intravitreal injections of 1 μl solutions of parstatin (1-26) in dimethyl sulphoxide (DMSO) or DMSO alone were administered to assess leukostasis. Six hours after intravitreal injections, which was the optimal time determined for VEGF-induced leukostasis, animals were perfused with PBS to remove intravascular content, including nonadherent leukocytes. Perfusion with FITC-conjugated Concanavalin A (40 μg/ml in PBS, Vector Labs, Burlingame, Calif.) was then performed to label adherent leukocytes and vascular endothelial cells, followed by removal of residual unbound lectin with PBS perfusion. Retinal flat mounts were prepared and examined with the Axioskop microscope and images were digitized. The total numbers of leukocytes adhering to the retinal vessels were counted at 200× by the same investigator, with the investigator being masked as to the nature of the specimen.

The test system of test [2] is corneal neovascularization in Sprague-Dawley rats. The test can be described thus: chemical burn-induced corneal neovascularization, image analysis. The format is in vivo, rat. Particulars: 2×50 μg subconjunctival, day 7. The text has this: Parstatin (1-41), hydrophobic parstatin (1-26) fragment and hydrophilic parstatin (24-41) fragment were used in an in vivo rat model of corneal neovascularization. In particular, chemical burn-induced corneal trauma was used to generate corneal neovascularization as a preclinical disease model simulating a plethora of corneal diseases associated with abnormal formation of new blood vessels. The cornea is normally an avascular tissue that can be stimulated to undergo pathological neoangiogenesis in response to mechanical or chemical injuries, pterygium, herpetic keratitis, etc. In this model, an inflammatory response is considered an important prerequisite for neovascularization. This model is widely accepted and is one of the most extensively studied models, which provides an in vivo environment to study this complex process with convenient access to the corneal tissue and the highly visible developing vasculature.
Pathogen-free male Sprague-Dawley rats (250-300 gr) were treated in accordance with the Association for Research in Vision and Ophthalmology Statement for the Use of Animals in Ophthalmic and Vision Research and the guidelines of the Animal Care and Use Committee at local University Medical School. […] The corneal neovascularization was assessed using a semiautomatic program, which was developed in MATLAB 7.5. […]

The subject of test [3] is corneas of Sprague-Dawley rats. The test can be described thus: corneal histopathology after chemical burn (vessels, neutrophils). Type of test: in vivo, rat. Particulars: 2×50 μg, day 7. The protocol:
After the above-described processes were performed, the rats were sacrificed (7 days) and the eyes were excised. All eyes were sectioned (4 μm) and stained with hematoxylin-eosin. Two independent pathologists, in a blinded manner, evaluated the microvessel density and the inflammatory cell infiltration in each slide. Total corneal vascular vessels and neutrophils were counted at 200× in seven representative stained tissue sections for each eye, covering all cornea area and having a similar distance from the central burn.

For test [4], the system named is HUVEC cells. The test can be described thus: Matrigel capillary tube-like formation. The format is cell-based, human. The conditions noted are these: 5% FBS, 18 h; parstatin (1-41) 0.3 to 10 μM, other peptides 10 μM. The protocol:
Primary human umbilical vein endothelial cells (HUVEC cells) were obtained from freshly delivered umbilical cords from caesarean births and were grown in M199 medium with 20% fetal bovine serum (FBS) supplemented with endothelial cell growth supplement and heparin. One of the most specific tests for angiogenesis is the measurement of the ability of endothelial cells to form capillary-like structures (i.e., tube formation). Tube formation is a multi-step process involving cell adhesion, migration and differentiation. Tube formation can be enhanced by use of Matrigel or fibrin clots to coat plastic culture dishes and it is an accepted model of angiogenesis.
Matrigel™ (Becton Dickinson Labware, N.J., USA) is a mixture of basement membrane components extracted from the Englebreth-Holm-Swarm tumor. […] Matrigel™ (250 μl) was added to each well of a 24-well plate and allowed to polymerize. A suspension of 40,000 HUVEC cells in M199 medium containing 5% FBS was added into each well coated with Matrigel™.
Cells were treated with increasing concentrations of human parstatin (1-41), scrambled parstatin, or parstatin (24-41) fragment. After 18 hours of incubation, the medium was removed, and the cells were fixed and stained, and tube-like structures were quantitated.

Test [5] has as its system HUVEC cells. Description: [3H]-thymidine incorporation (DNA synthesis). The format is cell-based, human. The conditions noted are these: serum, bFGF or VEGF; comparison peptides 10 μM. The protocol:
The ability of parstatin (1-41) to inhibit DNA synthesis of endothelial cells was assessed in thymidine incorporation assays. HUVEC cells were grown until 60-80% confluent in 24-well plates. Cells were treated with indicated peptides in serum-free medium containing either 0.5% BSA, or VEGF, or bFGF, or medium containing 5% FBS, or epidermal growth factor (EGF), or heparin-binging EGF (HB-EGF) for 18 hours. All cells were pulsed with 0.5 μCi/ml [3H]-thymidine (ICN Biomedicals Inc., Irvine Calif.) for additional 6 h. Radioactivity incorporated into DNA was determined in liquid scintillation counter.

Consider “MGPRRLLLVAACFSLCGPLLSARTRA (listed as Homo sapiens) [parstatin (1-26)]”, for which, in test [1], the “reduction of firmly adhering leukocytes vs VEGF-treated controls” value was 59% and the firmly adhering leukocytes is 74±32 cells/retina. Also, in test [2], the “inhibition of corneal neovascularization” value is 50%. For the same sequence, in test [3], the “inhibition of corneal mean number of vascular vessels” value is given as 55% and the “inhibition of mean number of infiltrated neutrophils” value turned out to be 71%.
On to “TRARRPESKATNATLDPR (listed as Homo sapiens) [parstatin (24-41), 24-41 (18 amino acids) of human parstatin, hydrophilic fragment]”, for which, in the test with HUVEC cells [4], the “tube formation on Matrigel” value is on record as “did not affect”. In addition, in test [1], the “reduction of firmly adhering leukocytes vs VEGF-treated controls” value is on record as 55% and the firmly adhering leukocytes worked out at 81±21 cells/retina. For the same sequence, the “inhibition of corneal neovascularization” value in test [2] came out at 60%. Further, the “DNA synthesis in HUVEC cells” value in the test with HUVEC cells [5] is given as “did not cause any significant effect”. Further, in test [3], the “inhibition of corneal mean number of vascular vessels” value was 68% and the “inhibition of mean number of infiltrated neutrophils” value was determined as 75%.
